From patent publication US5430150A, “Retroviral protease inhibitors” (American Cyanamid Company, priority 1992, dated 1995)

Assays:
[1] = molecular target: HIV-1 protease (Human immunodeficiency virus type 1 group M subtype B, UniProt P04585); assay: biochemical; assay type: biochemical; details: Activity of Compounds as Enzyme Inhibitor
Method: IC50 values for enzyme inhibition are determined using HIV-1 and Amersham's HIV proteinase [^125 I]-scintillation proximity assay (SPA).
Amersham's HIV proteinase [^125 I]-SPA system is a commercial assay incorporating the scintillation proximity assay (SPA) principle available from Amersham International PLC, Bucks, England.
The SPA microspheres provided by Amersham have the substrate linked directly to the surface through a streptavidin-biotin link. The substrate is a 12 residue peptide designed specifically for this application utilizing current knowledge of known cleavage sites for the enzyme and analogue substrate studies. The sequence of the substrate is: [drawing 22]
The peptide is monoiodinated on the tyrosine residue and biotinylated through the epsilon-NH2 group on the lysine. It is linked to the SPA bead via a streptavidin-link. The beads are suspended in a buffer consisting of 5 mM DTT, 1 mM EDTA, 10% w/v glycerol, 0.05% W/v sodium azide, 0.01% v/v Triton X-100 in 25 mM sodium citrate buffer pH 5.5.
The enzyme cleaves at the Phe-Phe bond releasing the ^125 I fragment from the bead. This event causes the removal of detectable signal from the microsphere. […] The rate of reduction in signal is proportional to the activity of the enzyme. The obtained data is used to calculate the IC50 values found in Table 1.

[2] = tested on: HIV-1 strain IIIB in T lymphoid MT-2 cell lines; assay: inhibition of growth of HIV-1 strain IIIB in T lymphoid MT-2 cell lines (metabolic MTT dye); assay type: cell-based
Method: In Table 2, data is shown for the ability of these compounds to inhibit growth of HIV-1 strain IIIB in T lymphoid MT-2 cell lines. The cell line is challenged by free virons selected to result in 90-95% cell death (CPE) by day 5. The protease inhibitor compound is then added in the stated concentration. After 5 days, the surviving cells are measured using metabolic MTT dye.

[3] = mouse plasma level after IP or oral administration; assay type: in vivo; details: mice; for time for which plasma concentrations of >0.13 microgram/ml are achieved: aqueous liposomal formulation

Compound: CC[C@H](C)[C@H](NC(=O)[C@H](Cc1ccccc1)CC(O)CN1C[C@H]2CCCC[C@H]2C[C@H]1C(=O)NC(C)(C)C)C(=O)NCc1nc2ccccc2[nH]1 (single isomer, unassigned) [Example 24B, [3S-[2[alphaS*(1R*,2R*),gammaS*(or R*)],3alpha,4abeta,8abeta]]-N-[1-[[(1H-Benzimidazol-2-ylmethyl)amino]carbonyl]-2-methylbutyl]-3-[[(1,1-dimethylethyl)amino]carbonyl]decahydro-gamma-hydroxy-alpha-(phenylmethyl)-2-isoquinolinepentanamide]
- IC50 [1]: 0.0728 µM
- % Inhibition at concentration 0.010 μg/ml ([2]; 0.010 μg/ml, 5 days): 16.2%
- % Inhibition at concentration 0.039 μg/ml ([2]; 0.039 μg/ml, 5 days): 81.4%
- % Inhibition at concentration 0.156 μg/ml ([2]; 0.156 μg/ml, 5 days): 93.0%
- % Inhibition at concentration 0.625 μg/ml ([2]; 0.625 μg/ml, 5 days): 94.7%
- % Inhibition at concentration 2.5 μg/ml ([2]; 2.5 μg/ml, 5 days): 94.9%
- inhibition of HIV-1 strain IIIB viral growth in MT-2 cell lines ([2]; concentration >0.13 microgram/ml): > 90%
- time for which plasma concentrations of >0.13 microgram/ml are achieved ([3]; IP 8.3 mg/kg): 2.8 h
- time for which plasma concentrations of >0.13 microgram/ml are achieved ([3]; IP 16.6 mg/kg): 4.2 h
- time for which plasma concentrations >0.13 microgram/ml are maintained ([3]; oral 16.6 mg/kg (FIG. 1)): 2 h
